Where a name gives a salt, the structure may show the parent alone. Read-outs that look alike come from different tables or passages of the source.
Key:
HCoV-229E = test: microbe, parasite or virus in culture; assay type: cell-based, Homo sapiens sapiens; details: Human coronavirus 229E, Huh7.5
[1] = Calu-3 cells, immunofluorescence imaging
[2] = Huh-7.5 cells, dose series, maximum tested dose 5 µM
[3] = Anti-SARS-CoV-2 screening on Calu-3 cells: viability [% of control], Calu-3 cells

SMILES	IC50 (HCoV-229E) [nM]	Anti-SARS-CoV-2 screening on Calu-3 cells: intracellular SARS-CoV-2 infection measured via immunofluorescence imaging [% of control] (SARS-CoV-2; [1])	CC50 (µM) (Huh-7.5/F-Luc cells; [2])	viability at 48 h, 5 µM (in vitro) [%]	viability (in vitro; [3]) [%]	Anti-SARS-CoV-2 screening on Calu-3 cells: intracellular SARS-CoV-2 infection measured via immunofluorescence imaging [% of control] (SARS-CoV-2)	CC50 (µM) (Huh-7.5/F-Luc cells)	IC50 (HCoV-229E; read-out: IC50) [nM]	viability (in vitro) [%]
COc1ccc(C(C)C)cc1CN[C@@H]1C2CCN(CC2)[C@H]1C(c1ccccc1)c1ccccc1 [RFM-011-107-9]	1100	82.87 % of control	greater than maximum tested dose	83.9					
CC(C)(C)NC[C@H](O)COc1ccccc1C1CCCC1 [penbutolol]	1050	102.38 % of control	greater than maximum tested dose	101					
CNCc1ccc(OC)c([C@]2(N3CCC[C@H]3c3ncco3)C(=O)N(S(=O)(=O)c3ccc(OC)cc3)c3ccc(Cl)cc32)c1 [RFM-011-200-5]	700	106.10 % of control	greater than maximum tested dose		117				
COc1cccc2c1C(=O)c1c(O)c3c(c(O)c1C2=O)C[C@@](O)(C(=O)CO)C[C@@H]3O[C@H]1C[C@H](N)[C@H](O[C@@H]2CCCCO2)[C@H](C)O1 [pirarubicin]	890	112.83 % of control	greater than maximum tested dose		56.9				
CN1CCC(CNc2ccc3ncc(-c4cccc(OC(F)(F)F)c4)n3n2)CC1 [SGI-1776]	560	100.18 % of control	greater than maximum tested dose		94.5				
CNCc1ccc(C)c(NC(=O)c2ccc(Nc3nc(-c4ccccc4)c4ccccc4n3)cc2)c1 [XL-139]	620	109.44 % of control	greater than maximum tested dose		107				
OCCN1CCN(CC/C=C2/c3ccccc3Sc3ccc(Cl)cc32)CC1 [ZUCLOPENTHIXOL]	1130	108.85 % of control	greater than maximum tested dose	110					
CC/C(=C(\c1ccc(O)cc1)c1ccc(OCCN(C)C)cc1)c1ccccc1 [Afimoxifene]	630	100.60 % of control	greater than maximum tested dose		93.4				
CC/C(=C(\c1ccccc1)c1ccc(OCCN(C)C)cc1)c1ccccc1 [Tamoxifen citrate]				102		106.52 % of control	greater than maximum tested dose		
C1CCC(C(CC2CCCCN2)C2CCCCC2)CC1 (centres unmarked) [PERHEXILINE]	670	116.50 % of control	greater than maximum tested dose	97					
COc1cccc2c1C(=O)c1c(O)c3c(c(O)c1C2=O)C[C@@](O)(C(=O)CO)C[C@@H]3O[C@H]1C[C@H](N2CCO[C@H](OC)C2)[C@H](O)[C@H](C)O1 [NEMORUBICIN]		46.15 % of control	greater than maximum tested dose					170	16.5
Oc1ccc2c(c1)CC[C@H](c1ccccc1)[C@@H]2c1ccc(OCCN2CCCC2)cc1 [Lasofoxifene]	750	119.41 % of control	greater than maximum tested dose		92.8				

— article PMC10916382, “Repurposing screen identifies novel candidates for broad-spectrum coronavirus antivirals and druggable host targets” (Antimicrobial Agents and Chemotherapy, 2024)
